In patent publication US6979686B1, “Substituted pyrazoles as p38 kinase inhibitors” (Pharmacia Corporation, priority 2001, dated 2005):
Where two headings read alike, the source gives them in different places.

What was measured:
human p38 kinase alpha = target: T1, human p38 kinase alpha (Homo sapiens, UniProt Q16539); test: p38 kinase in vitro assay, phosphorylation of biotinylated PHAS-I with 32P-ATP; assay type: biochemical; conditions: for IC50: read-out: P38 alpha kinase IC50
T1 construct: GST (N, cleaved yes); made in house; host or cells: E. coli DH10B
T1 sequence (Q16539 whole entry): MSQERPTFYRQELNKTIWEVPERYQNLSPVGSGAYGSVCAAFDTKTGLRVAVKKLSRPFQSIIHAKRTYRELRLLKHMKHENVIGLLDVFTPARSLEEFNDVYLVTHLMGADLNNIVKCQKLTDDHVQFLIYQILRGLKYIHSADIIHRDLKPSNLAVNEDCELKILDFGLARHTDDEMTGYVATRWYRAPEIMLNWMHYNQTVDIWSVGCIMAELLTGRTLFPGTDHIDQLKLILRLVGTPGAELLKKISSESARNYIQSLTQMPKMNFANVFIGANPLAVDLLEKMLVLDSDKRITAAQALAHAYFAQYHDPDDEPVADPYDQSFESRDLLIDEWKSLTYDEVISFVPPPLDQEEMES

[1] = test system: TNF-α, U937 human histiocytic lymphoma cell line; test: LPS stimulation of TNF production by U937 cells; assay type: cell-based; conditions: for inhibition at 1 µM: U-937, @ 1.0 uM, read-out: U937 Cell % inhib @ conc.
Method in brief: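 U937 cells differentiated 24 h with 20 ng/ml PMA, rested 24-48 h, used at 2 million cells/ml. Compounds in 0.1% DMSO final; LPS (E. coli, 100 ng/ml final) stimulation for 4 h at 37° C. Released TNF-α measured by ELISA; IC50 (μM).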

[2] = in vitro P38-alpha kinase inhibition
[3] = Homo sapiens, TNF production, U937 cells stimulated with LPS
[4] = Homo sapiens, U-937, TNF production, human U937 cells stimulated with LPS, read-out: U937 Cell IC50
[5] = @ 1.0 uM, TNF production, U937 cells stimulated with LPS
[6] = @ 10.0 uM, TNF production, U937 cells stimulated with LPS
[7] = TNF production, human U937 cells stimulated with LPS, read-out: U937 Cell IC50
[8] = Homo sapiens, TNF production, LPS-stimulated U937 cells

Question: Which results are given for `CC(NC(=O)NCc1ccccc1)c1[nH]nc(-c2ccc(F)cc2)c1-c1ccncc1` (centres unmarked) [Example B-0580]?
Answer: IC50 (human p38 kinase alpha; [2]): 2230 nM; IC50 ([1]; TNF production in human U937 cells stimulated with LPS, read-out: U937 Cell IC50): 0.84 µM

Question: For `CCCCCCCCOc1cccc(NC(=O)Cn2nc(-c3ccc(F)cc3)c(-c3ccncc3)c2C)c1` [Example B-2442], which “P38 alpha kinase IC50, uM or % inhib @ conc. (uM): % inhib” value (“P38 alpha kinase IC50 … % inhib” for short) (human p38 kinase alpha; @ 10.0 uM) is on record?
Answer: Its value is 86.0% @.

Question: What about the IC50 ([1]; TNF production, U937 cells stimulated with LPS, read-out: U937 Cell IC50, uM or % inhib @ conc. (uM): IC50) of the same molecule?
Answer: Its IC50 is over 10 µM.

Question: Which results are given for `CN(C)c1cccc2c(S(=O)(=O)NCCc3[nH]nc(-c4ccc(F)cc4)c3-c3ccncc3)cccc12` [Example B-1072]?
Answer: IC50 (human p38 kinase alpha; [2]): 380 nM; inhibition at 1 µM [1, 3]: 28%

Question: Which results are given for `CC(=O)OC(C)(C)C(=O)NC(C)c1[nH]nc(-c2ccc(F)cc2)c1-c1ccncc1` (centres unmarked) [Example B-0535]?
Answer: IC50 (human p38 kinase alpha; [2]): 440 nM; IC50 ([1]; Homo sapiens, U-937, TNF production in human U937 cells stimulated with LPS, read-out: U937 Cell IC50): 0.87 µM

Question: `O=C(NCc1[nH]nc(-c2ccc(F)cc2)c1-c1ccncc1)c1ccccc1C(F)(F)F` [Example B-0016] was tested. Which inhibition at 1 µM (human p38 kinase alpha; @ 1.0 uM, read-out: P38 alpha kinase % inhib @ conc.) did it give?
Answer: Its inhibition at 1 µM is 94%.

Question: And the IC50 [1, 4]?
Answer: The IC50 was 3.98 µM.

Question: How did the “P38 alpha kinase % inhib @ conc. (uM)” value (human p38 kinase alpha; @ 1.0 uM) turn out when `CCOC(=O)C(NC(=O)NCCc1[nH]nc(-c2ccc(F)cc2)c1-c1ccncc1)C(C)C` (centres unmarked) [Example B-0976] was run?
Answer: The value was 79.0% @.

Question: And the “U937 Cell % inhib @ conc. (uM)” value [1, 5]?
Answer: Its value is 36.0% @.

Question: Which IC50 (human p38 kinase alpha; [2]) does the source give for `CNC(=O)CCC(NC(=O)c1cccc(Br)c1)c1[nH]nc(-c2ccc(F)cc2)c1-c1ccncc1` (centres unmarked) [Example B-0867] here?
Answer: Its IC50 is 620 nM.

Question: And the IC50 [1, 4]?
Answer: The IC50 was over 1 µM.

Question: What does the source list for `CNC(=O)CCC(NC(=O)Cc1cccc(OC)c1)c1[nH]nc(-c2ccc(F)cc2)c1-c1ccncc1` (centres unmarked) [Example B-0872]?
Answer: IC50 (human p38 kinase alpha; [2]): 3130 nM; inhibition at 1 µM [1, 3]: 3%

Question: What does the source list for `C=CCOC(=O)NC(Cc1ccccc1)c1[nH]nc(-c2ccc(F)cc2)c1-c1ccncc1` (centres unmarked) [Example B-0801]?
Answer: IC50 (human p38 kinase alpha; [2]): 670 nM; IC50 [1, 4]: > 1 µM

Question: Which results are given for `Cc1c(-c2ccncc2)c(-c2ccc(F)cc2)nn1CC(=O)N(CC1CC1)C(C)Cc1ccc(Cl)cc1` (centres unmarked) [Example B-2397]?
Answer: P38 alpha kinase IC50, uM or % inhib @ conc. (uM): % inhib (human p38 kinase alpha; @ 10.0 uM): 83.0% @; U937 Cell IC50, uM or % inhib @ conc. (uM): % inhib [1, 6]: 22.0% @

Question: Which results are given for `CNC(=O)CCC(NC(=O)C(C)C)c1[nH]nc(-c2ccc(F)cc2)c1-c1ccncc1` (centres unmarked) [Example B-0863]?
Answer: IC50 (human p38 kinase alpha; [2]): 810 nM; inhibition at 1 µM [1, 3]: 25%

Question: For `CNC(=O)CCC(NS(=O)(=O)c1ccccc1F)c1[nH]nc(-c2ccc(F)cc2)c1-c1ccncc1` (centres unmarked) [Example B-0879], which IC50 (human p38 kinase alpha; [2]) is on record?
Answer: Its IC50 is 870 nM.

Question: What about the inhibition at 1 µM [1, 3] of the same molecule?
Answer: The inhibition at 1 µM was 1%.

Question: How did the IC50 (human p38 kinase alpha; [2]) turn out when `COc1ccccc1C(=O)NC(Cc1ccccc1)c1[nH]nc(-c2ccc(F)cc2)c1-c1ccncc1` (centres unmarked) [Example B-0811] was run?
Answer: Its IC50 is 2790 nM.

Question: What about the inhibition at 1 µM [1, 3] of the same molecule?
Answer: The inhibition at 1 µM was 2%.

Question: `COC(=O)C1CN1C(=O)Cn1nc(-c2ccc(F)cc2)c(-c2ccncc2)c1C` (centres unmarked) [Example B-2406] was tested. Which “P38 alpha kinase IC50 … % inhib” value (human p38 kinase alpha; @ 10.0 uM) did it give?
Answer: The value was 45.0% @.

Question: And the “U937 Cell IC50, uM or % inhib @ conc. (uM): % inhib” value [1, 6]?
Answer: Its value is 24.0% @.

Question: How did the “P38 alpha kinase IC50 … % inhib” value (human p38 kinase alpha; @ 100.0 uM) turn out when `CCN(CC)CCN(Cc1ccc(Cl)cc1)C(=O)Cn1nc(-c2ccc(F)cc2)c(-c2ccncc2)c1C` [Example B-2398] was run?
Answer: Its value is 55% @.

Question: And the “U937 Cell IC50, uM or % inhib @ conc. (uM): % inhib” value [1, 6]?
Answer: The value was 10.0% @.

Question: What does the source list for `Cc1c(-c2ccncc2)c(-c2ccc(F)cc2)nn1CC(=O)N(C)CCN(C)C` [Example B-2375]?
Answer: P38 alpha kinase % inhib @ conc. (human p38 kinase alpha; @ 100.0 uM): 62.0% @; IC50 [1, 7]: > 10 µM

Question: Which “P38 alpha kinase % inhib @ conc.” value (human p38 kinase alpha; @ 10.0 uM) does the source give for `CCN1CCC(N(CC)C(=O)Cn2nc(-c3ccc(F)cc3)c(-c3ccncc3)c2C)C1` (centres unmarked) [Example B-2369] here?
Answer: Its value is 32.0% @.

Question: What about the IC50 [1, 7] of the same molecule?
Answer: The IC50 was over 10 µM.

Question: With `CC(NC(=O)c1cccc(C(F)(F)F)c1F)c1[nH]nc(-c2ccc(F)cc2)c1-c1ccncc1` (centres unmarked) [Example B-0687] as the molecule, how does the IC50 (human p38 kinase alpha; [2]) read?
Answer: Its IC50 is 10100 nM.

Question: And the “U937 Cell % inhib @ conc. (uM)” value ([1]; @ 1.0 uM, TNF production in human U937 cells stimulated with LPS)?
Answer: Its value is 15.0% @.

Question: For `CNC(=O)CCC(NC(=O)c1ccccc1OC)c1[nH]nc(-c2ccc(F)cc2)c1-c1ccncc1` (centres unmarked) [Example B-0871], which IC50 (human p38 kinase alpha; [2]) is on record?
Answer: Its IC50 is 1900 nM.

Question: And the IC50 [1, 4]?
Answer: Its IC50 is over 1 µM.

Question: With `O=C(c1ccccc1Cl)N1CCC(c2[nH]nc(-c3ccc(F)cc3)c2-c2ccncc2)CC1` [Example B-1397] as the molecule, how does the IC50 (human p38 kinase alpha; in vitro P38-alpha kinase) read?
Answer: Its IC50 is 920 nM.

Question: And the inhibition at 1 µM [1, 8]?
Answer: Its inhibition at 1 µM is 85%.

Question: Which “P38 alpha kinase % inhib @ conc.” value (human p38 kinase alpha; @ 10.0 uM) does the source give for `CCN(CC)C(=O)Cn1nc(-c2ccc(F)cc2)c(-c2ccncc2)c1C` [Example B-2371] here?
Answer: Its value is 54.0% @.

Question: What about the “U937 Cell % inhib @ conc.” value ([1]; @ 10.0 uM, TNF production, LPS-stimulated U937 cells) of the same molecule?
Answer: The value was 36.0% @.

Question: Which results are given for `CCOC(=O)NC(=O)NCc1[nH]nc(-c2ccc(F)cc2)c1-c1ccncc1` [Example B-0152]?
Answer: P38 alpha kinase % inhib @ conc. (human p38 kinase alpha; @ 1.0 uM): 51.0% @; U937 Cell % inhib @ conc. [1, 5]: 24.0% @

Question: For `O=S(=O)(c1ccc(F)cc1)N1CCC(c2[nH]nc(-c3ccc(F)cc3)c2-c2ccncc2)CC1` [Example B-1470], which IC50 (human p38 kinase alpha; in vitro P38-alpha kinase) is on record?
Answer: Its IC50 is 600 nM.

Question: What about the inhibition at 1 µM [1, 8] of the same molecule?
Answer: Its inhibition at 1 µM is 28%.

Question: Which results are given for `COc1ccc(OC)c(S(=O)(=O)N2CCC(c3[nH]nc(-c4ccc(F)cc4)c3-c3ccncc3)CC2)c1` [Example B-1444]?
Answer: IC50 (human p38 kinase alpha; in vitro P38-alpha kinase): 300 nM; inhibition at 1 µM [1, 8]: 24%

Question: Which results are given for `Cc1c(Cl)cccc1S(=O)(=O)NCCc1[nH]nc(-c2ccc(F)cc2)c1-c1ccncc1` [Example B-1075]?
Answer: IC50 (human p38 kinase alpha; [2]): 30 nM; inhibition at 1 µM [1, 3]: 29%
